In patent US5633345A, “Cyclic peptides” (priority 1992, dated 1997) one finds toxicity signs data, which are given here for 19 compounds.

Starred links: 1 amine or outer side, 2 acyl side, 3 side chain; linkers in the order of their positions; H or OH if unused. Non-standard residues stand in square brackets, D forms with d. Residues, ends and D or L forms follow the SMILES beside them. *: point of attachment. X7 = CC(=O)OC(c1ccccc1)[C@@H](C(=O)[*:2])N(C)[*:1]; NMePhe(2-F) = CN[C@@H](Cc1ccccc1F)C(=O)O; X1 = CC[C@@H](C)[C@@H](O[*:1])C(=O)[*:2]; NMeVal(β-OH) = CN[C@H](C(=O)O)C(C)(C)O; X4 = CC(O)[C@@H](C)C(O[*:1])C(=O)[*:2]; X6 = CC(CO)[C@@H](C(=O)[*:2])N(C)[*:1]; NMeaIle = CC[C@@H](C)[C@H](NC)C(=O)O; Phe(2-F) = N[C@@H](Cc1ccccc1F)C(=O)O; X5 = CN([C@@H](CCCO)C(=O)[*:2])[*:1]; NMeY = CN[C@@H](Cc1ccc(O)cc1)C(=O)O; NMeF = CN[C@@H](Cc1ccccc1)C(=O)O; aIle = CC[C@@H](C)[C@H](N)C(=O)O; Nva(5-OH) = N[C@@H](CCCO)C(=O)O; NMeL = CN[C@@H](CC(C)C)C(=O)O; NMeV = CN[C@H](C(=O)O)C(C)C; Thz = O=C(O)[C@@H]1CSCN1; Nva = CCC[C@H](N)C(=O)O; OBn = c1ccc(CO*)cc1; Sar = CNCC(=O)O

For this series the following is noted: mouse, in vivo, ip, 100 mg/kg.
For the compound `CC[C@@H](C)[C@H]1OC(=O)[C@H](C(C)(C)O)N(C)C(=O)[C@H](CC(C)C)NC(=O)[C@H](C(C)C)N(C)C(=O)[C@H](C(C)C)NC(=O)[C@@H]2CCCN2C(=O)[C@H](Cc2ccccc2)N(C)C(=O)[C@H](Cc2ccccc2)NC(=O)[C@H](C(C)C)N(C)C1=O` [Compound 3] (HELM PEPTIDE1{F.[meF].P.V.[meV].L.[CN([C@H](C(=O)[*:2])C(C)(C)O)[*:1]].[CC[C@@H](C)[C@@H](O[*:1])C(=O)[*:2]].[meV]}$PEPTIDE1,PEPTIDE1,1:R1-9:R2$$$V2.0), the toxicity signs result is given as “no toxicity signs”. In the case of `CC[C@@H](C)[C@@H]1NC(=O)[C@@H]2CCCN2C(=O)[C@H](Cc2ccccc2)N(C)C(=O)[C@H](Cc2ccccc2)NC(=O)[C@H](C(C)C)N(C)C(=O)[C@@H]([C@H](C)CC)OC(=O)[C@H](C(C)CO)N(C)C(=O)[C@H](CC(C)C)NC(=O)[C@H](C(C)C)N(C)C1=O` (stereo partly shown) [Compound 4] (cyclo(F[NMeF]P[aIle][NMeV]L[X6][X1][NMeV])), the toxicity signs entry is recorded as “no toxicity signs”. As to `CC[C@@H](C)[C@H]1OC(=O)[C@H](C(C)(C)O)N(C)C(=O)[C@H](CC(C)C)NC(=O)[C@H](C(C)C)N(C)C(=O)[C@H](CC(C)C)NC(=O)[C@@H]2CCCN2C(=O)[C@H](Cc2ccccc2)N(C)C(=O)[C@H](Cc2ccccc2)NC(=O)[C@H](C(C)C)N(C)C1=O` [Compound 6] (HELM PEPTIDE1{F.[meF].P.L.[meV].L.[CN([C@H](C(=O)[*:2])C(C)(C)O)[*:1]].[CC[C@@H](C)[C@@H](O[*:1])C(=O)[*:2]].[meV]}$PEPTIDE1,PEPTIDE1,1:R1-9:R2$$$V2.0), the toxicity signs result is on record as “no toxicity signs”. Regarding `CC[C@@H](C)[C@@H]1NC(=O)[C@@H]2CCCN2C(=O)[C@H](Cc2ccccc2F)N(C)C(=O)[C@H](Cc2ccccc2F)NC(=O)[C@H](C(C)C)N(C)C(=O)[C@@H]([C@H](C)CC)OC(=O)[C@H](C(C)(C)O)N(C)C(=O)[C@H](CC(C)C)NC(=O)[C@H](C(C)C)N(C)C1=O` [Compound 7] (cyclo(L[NMeVal(β-OH)][X1][NMeV][Phe(2-F)][NMePhe(2-F)]P[aIle][NMeV])), the toxicity signs entry was “no toxicity signs”. To `CC[C@@H](C)[C@@H]1NC(=O)[C@@H]2CCCN2C(=O)[C@H](Cc2ccc(O)cc2)N(C)C(=O)[C@H](Cc2ccccc2)NC(=O)[C@H](C(C)C)N(C)C(=O)[C@@H]([C@H](C)CC)OC(=O)[C@H](C(C)(C)O)N(C)C(=O)[C@H](CC(C)C)NC(=O)[C@H](C(C)C)N(C)C1=O` [Compound 8] (cyclo(F[NMeY]P[aIle][NMeV]L[NMeVal(β-OH)][X1][NMeV])) belongs “no toxicity signs”. With `CC[C@@H](C)[C@@H]1NC(=O)[C@@H]2CSCN2C(=O)[C@H](Cc2ccccc2)N(C)C(=O)[C@H](Cc2ccccc2)NC(=O)[C@H](C(C)C)N(C)C(=O)[C@@H]([C@H](C)CC)OC(=O)[C@H](C(C)(C)O)N(C)C(=O)[C@H](CC(C)C)NC(=O)[C@H](C(C)C)N(C)C1=O` [Compound 10] (cyclo(F[NMeF][Thz][aIle][NMeV]L[NMeVal(β-OH)][X1][NMeV])), the toxicity signs entry is “no toxicity signs”. As for `CCCC[C@@H]1NC(=O)[C@@H]2CCCN2C(=O)[C@H](Cc2ccccc2)N(C)C(=O)[C@H](Cc2ccccc2)NC(=O)[C@H](C(C)C)N(C)C(=O)[C@@H]([C@H](C)CC)OC(=O)[C@H](C(C)(C)O)N(C)C(=O)[C@H](CC(C)C)NC(=O)[C@H](C(C)C)N(C)C1=O` [Compound 11] (HELM PEPTIDE1{F.[meF].P.[Nle].[meV].L.[CN([C@H](C(=O)[*:2])C(C)(C)O)[*:1]].[CC[C@@H](C)[C@@H](O[*:1])C(=O)[*:2]].[meV]}$PEPTIDE1,PEPTIDE1,1:R1-9:R2$$$V2.0), the toxicity signs result is given as “no toxicity signs”.

`CCC[C@@H]1NC(=O)[C@H](C(C)C)N(C)C(=O)[C@H]([C@H](C)CC)NC(=O)[C@@H]2CCCN2C(=O)[C@H](Cc2ccccc2)N(C)C(=O)[C@H](Cc2ccccc2)NC(=O)[C@H](C(C)C)N(C)C(=O)[C@@H]([C@H](C)CC)OC(=O)[C@H](C(C)(C)O)N(C)C1=O` [Compound 12] (cyclo(F[NMeF]P[aIle][NMeV][Nva][NMeVal(β-OH)][X1][NMeV])): the toxicity signs result was “no toxicity signs”. On to `CC[C@@H](C)[C@@H]1NC(=O)[C@@H]2CCCN2C(=O)CN(C)C(=O)[C@H](Cc2ccccc2)NC(=O)[C@H](C(C)C)N(C)C(=O)[C@@H]([C@H](C)CC)OC(=O)[C@H](C(C)(C)O)N(C)C(=O)[C@H](CC(C)C)NC(=O)[C@H](C(C)C)N(C)C1=O` [Compound 13] (cyclo(F[Sar]P[aIle][NMeV]L[NMeVal(β-OH)][X1][NMeV])), for which the toxicity signs result was “no toxicity signs”.

On to `CC[C@@H](C)[C@@H]1NC(=O)[C@@H]2CCCN2C(=O)[C@H](C(OC(C)=O)c2ccccc2)N(C)C(=O)[C@H](Cc2ccccc2)NC(=O)[C@H](C(C)C)N(C)C(=O)[C@@H]([C@H](C)CC)OC(=O)[C@H](C(C)(C)O)N(C)C(=O)[C@H](CC(C)C)NC(=O)[C@H](C(C)C)N(C)C1=O` (stereo partly drawn) [Compound 15] (cyclo(F[X7]P[aIle][NMeV]L[NMeVal(β-OH)][X1][NMeV])), for which the toxicity signs result is “no toxicity signs”.

As to `CC[C@@H](C)[C@@H]1NC(=O)[C@@H]2CCCN2C(=O)[C@H](Cc2ccccc2)N(C)C(=O)[C@H](Cc2ccccc2)NC(=O)[C@H](C(C)C)N(C)C(=O)C([C@H](C)C(C)O)OC(=O)[C@H](C(C)(C)O)N(C)C(=O)[C@H](CC(C)C)NC(=O)[C@H](C(C)C)N(C)C1=O` (stereo partly drawn) [Compound 17] (cyclo(F[NMeF]P[aIle][NMeV]L[NMeVal(β-OH)][X4][NMeV])), the toxicity signs result is recorded as “no toxicity signs”. Turning to `CC[C@@H](C)[C@@H]1NC(=O)[C@@H]2CCCN2C(=O)[C@H](Cc2ccccc2)N(C)C(=O)[C@H](Cc2ccccc2)NC(=O)[C@H](C(C)C)N(C)C(=O)[C@@H]([C@H](C)CC)OC(=O)[C@H]([C@@H](C)O)N(C)C(=O)[C@H](CC(C)C)NC(=O)[C@H](C(C)C)N(C)C1=O` [Compound 19, Cyclo(L-aIle-L-MeVal-L-Leu-L-MeThr-D-Hmp-L-MeVal-L-Phe-L-MePhe-L-Pro)] (HELM PEPTIDE1{F.[meF].P.[CC[C@@H](C)[C@H](N[*:1])C(=O)[*:2]].[meV].L.[meT].[CC[C@@H](C)[C@@H](O[*:1])C(=O)[*:2]].[meV]}$PEPTIDE1,PEPTIDE1,1:R1-9:R2$$$V2.0), the toxicity signs entry is “no toxicity signs”. For the compound `CC[C@@H](C)[C@@H]1NC(=O)[C@@H]2CCCN2C(=O)[C@H](Cc2ccccc2)N(C)C(=O)[C@H](Cc2ccccc2)NC(=O)[C@H](C(C)C)N(C)C(=O)[C@@H]([C@H](C)CC)OC(=O)[C@H](C(C)(C)O)N(C)C(=O)[C@H](CC(C)C)NC(=O)[C@H]([C@H](C)CC)N(C)C1=O` [Compound 22, cyclo (L-aIle-L-MeaIle-L-Leu-L-βHOMeVal-D-Hmp-L-MeVal-L-Phe-L-MePhe-L-Pro)] (cyclo(F[NMeF]P[aIle][NMeaIle]L[NMeVal(β-OH)][X1][NMeV])), the toxicity signs result is on record as “no toxicity signs”. As to `CC[C@@H](C)[C@@H]1NC(=O)[C@@H]2CCCN2C(=O)[C@H](Cc2ccccc2)N(C)C(=O)[C@H](Cc2ccccc2)NC(=O)[C@H](C(C)C)N(C)C(=O)[C@@H]([C@H](C)CC)OC(=O)[C@H](C(C)(C)O)N(C)C(=O)[C@H](CC(C)C)NC(=O)[C@H](CC(C)C)N(C)C1=O` [Compound 23, cyclo(L-aIle-L-MeLeu-L-Leu-L-βHOMeVal-D-Hmp-L-MeVal-L-Phe-L-MePhe-L-Pro)] (cyclo(F[NMeF]P[aIle][NMeL]L[NMeVal(β-OH)][X1][NMeV])), the toxicity signs result is on record as “no toxicity signs”. On to `CC[C@@H](C)[C@@H]1NC(=O)[C@@H]2CCCN2C(=O)[C@H](Cc2ccccc2)N(C)C(=O)[C@H](Cc2ccccc2)NC(=O)[C@H](C(C)C)N(C)C(=O)[C@@H]([C@H](C)CC)OC(=O)[C@H](C(C)(C)O)N(C)C(=O)[C@H]([C@H](C)CC)NC(=O)[C@H](C(C)C)N(C)C1=O` [Compound 24, cyclo(L-aIle-L-MeVal-L-aIle-L-βHOMeVal-D-Hmp-L-MeVal-L-Phe-L-MePhe-L- Pro)] (cyclo(F[NMeF]P[aIle][NMeV][aIle][NMeVal(β-OH)][X1][NMeV])), for which the toxicity signs result was “no toxicity signs”. As to `CC(C)C[C@@H]1NC(=O)[C@H](C(C)C)N(C)C(=O)[C@H](C(C)C)NC(=O)[C@@H]2CCCN2C(=O)[C@H](Cc2ccccc2)N(C)C(=O)[C@H](Cc2ccccc2)NC(=O)[C@H](C(C)C)N(C)C(=O)[C@@H](C(C)C)OC(=O)[C@H](C(C)(C)O)N(C)C1=O` [Compound 25] (HELM PEPTIDE1{F.[meF].P.V.[meV].L.[CN([C@H](C(=O)[*:2])C(C)(C)O)[*:1]].[CC(C)[C@@H](O[*:1])C(=O)[*:2]].[meV]}$PEPTIDE1,PEPTIDE1,1:R1-9:R2$$$V2.0), the toxicity signs result is on record as “no toxicity signs”.

With `CC[C@@H](C)[C@H]1OC(=O)[C@H](C(C)(C)O)N(C)C(=O)[C@H](CC(C)C)NC(=O)[C@H](C(C)C)N(C)C(=O)[C@H](CCC(=O)OCc2ccccc2)NC(=O)[C@@H]2CCCN2C(=O)[C@H](Cc2ccccc2)N(C)C(=O)[C@H](Cc2ccccc2)NC(=O)[C@H](C(C)C)N(C)C1=O` [Compound 26, cyclo(L-GluOR-L-MeVal-L-Leu-L-βHOMeVal-D-Hmp-L-MeVal-L-Phe-L-MePhe-L- Pro) (R: Bzl)] (cyclo(E(OBn)[NMeV]L[NMeVal(β-OH)][X1][NMeV]F[NMeF]P)), the toxicity signs result was “no toxicity signs”.

Consider `CC[C@@H](C)[C@@H]1NC(=O)[C@@H]2CCCN2C(=O)[C@H](Cc2ccccc2)N(C)C(=O)[C@H](Cc2ccccc2)NC(=O)[C@H](C(C)C)N(C)C(=O)[C@@H]([C@H](C)CC)OC(=O)[C@H](C(C)(C)O)N(C)C(=O)[C@H](CC(C)C)NC(=O)[C@H](CCCO)N(C)C1=O` [Compound 28, cyclo(L-aIle-L-HOMeNva-L-Leu-L-βHOMeVal-D-Hmp-L-MeVal-L-Phe-L-MePhe-L-Pro)] (cyclo(F[NMeF]P[aIle][X5]L[NMeVal(β-OH)][X1][NMeV])), for which the toxicity signs result is “no toxicity signs”. On to `CC[C@@H](C)[C@@H]1NC(=O)[C@@H]2CCCN2C(=O)[C@H](Cc2ccccc2)N(C)C(=O)[C@H](Cc2ccccc2)NC(=O)[C@H](C(C)C)N(C)C(=O)[C@@H]([C@H](C)CC)OC(=O)[C@H](C(C)(C)O)N(C)C(=O)[C@H](CCCO)NC(=O)[C@H](C(C)C)N(C)C1=O` [Compound 39, cyclo(L-aIle-L-MeVal-L-HONva-L-βHOMeVal-D-Hmp-L-MeVal-L-Phe-L-MePhe-L-Pro)] (cyclo(F[NMeF]P[aIle][NMeV][Nva(5-OH)][NMeVal(β-OH)][X1][NMeV])), for which the toxicity signs result is “no toxicity signs”.
